Format in all cases: in vivo
Test [1] relates to mice. Nature of the test: Amphetamine-induced hyperlocomotion (open field). The note with it: drug 2 amphetamine SC. The method, then:
Table 2, below, indicates the locomotor responses of mice treated with various combinations of alpha-2B receptor agonists and the psychostimulant amphetamine. Drug 1 was administered 30 minutes after the animal was placed in the open field. Drug 2 was administered subcutaneously (SC) at 45 minutes after the animal was placed in the open field (15 minutes after drug 1). AUC indicates the total amount of locomotor activity after administration of drug 2. “% decrease activity” indicates the percentage decrease in total activity relative to the Vehicle+Amphetamine group. ° indicates significant difference (P<0.05) relative to Vehicle+Amphetamine treated animals. * indicates significant difference (P<0.05) relative to Vehicle+Vehicle treated animals.
(§1) Amphetamine- or cocaine-induced hyperactivity. Mice were placed in an open field apparatus (FlexField, San Diego Instruments, San Diego, Calif.). After 30 minutes of habituation, they received a vehicle or haloperidol injection or injection of alpha-2B receptor agonist followed by an injection of amphetamine (2 mg/kg, s.c.) or cocaine (10 mg/kg, i.p.) at minute 45. Their activity levels were subsequently measured for another 1 hour post-injection. Total activity over each 5 minute bin (21 total bins) was added to establish activity curve over the 105 minute testing.
(§2) For i.p. administration, the compounds are formulated in H2O with 0.5% DMSO and given in a volume of 1 ml/kg body weight by injecting into the intraperitoneal cavity. For p.o. administration, the compounds are formulated in H2O with 0.5% DMSO and given in a volume of 2 ml/kg body weight using a 25-gauge, 1.5 inch gavage needle that is slowly inserted through the esophagus into the stomach.

The test system of test [2] is mice. Nature of the test: Cocaine-induced hyperlocomotion (open field). The note with it: drug 2 cocaine SC; for % DECREASE ACTIVITY: relative to Vehicle+Cocaine. The method, then: Table 3, below, indicates the locomotor responses of mice treated with various combinations of alpha-2B receptor agonists and the psychostimulant cocaine. Drug 1 was administered 30 minutes after the animal was placed in the open field. Drug 2 was administered subcutaneously (SC) at 45 minutes after the animal was placed in the open field (15 minutes after drug 1). AUC indicates the total amount of locomotor activity after administration of drug 2. “% decrease activity” indicates the percentage decrease in total activity relative to the Vehicle+Cocaine group. ° indicates significant difference (P<0.05) relative to Vehicle+Cocaine treated animals. * indicates significant difference (P<0.05) relative to Vehicle+Vehicle treated animals.
as §1, §2

The subject of test [3] is nigrostriatal-lesioned rats. Nature of the test: Nigrostriatal-lesion-induced rotational behavior following amphetamine administration. As to conditions: relative to Vehicle+Amphetamine, drug 1 0.3 mg/kg PO, drug 2 amphetamine SC. The method, then:
Table 4, below, indicates the changes in rotational behavior in nigrostriatal-lesioned rats treated with various alpha-2B receptor agonists and the psychostimulant amphetamine. Drug 1 was administered 15 minutes before amphetamine, and 10 minutes post-amphetamine, the animals were placed into the rotometer for 30 or 60 minutes. “% decrease rotations” indicates the percentage decrease in total rotations relative to the Vehicle+Amphetamine group. ^⋄ indicates significant difference (P<0.05) relative to Vehicle+Amphetamine treated animals. * indicates significant difference (P<0.05) relative to Vehicle+Vehicle treated animals.
Amphetamine-induced rotational behavior. Pre-Apomorphine-screened (rotated) rats (with lesions ≧95% DA cell loss) were purchased from Charles Rivers Laboratories. Animals were given ˜4 days to acclimate prior to testing. All animals weighted 250-300 g at the beginning of the study. Animals were treated with various combinations of vehicle or alpha-2B receptor agonist and amphetamine.
Vehicle or alpha-2B receptor agonist was administered (p.o.) 15 minutes before amphetamine (2 mg/kg s.c.). Rotational behavior was assessed 15 minutes post-amphetamine administration and was monitored for 60 minutes using a Rotometer system from San Diego Instruments (San Diego, Calif.).
as §2

In the case of `O=C1c2ccccc2CC[C@H]1Cc1c[nH]c(=S)[nH]1` [Compound E], the “% DECREASE ACTIVITY REL TO VEH + AMPH” value with mice [1] (drug 1 0.01 mg/kg PO) amounted to 15% *; in the test with mice [1] (drug 1 0.03 mg/kg PO), 58% ^⋄; with mice [1] (drug 1 0.1 mg/kg PO), 66% ^⋄; in the test on mice [1] (drug 1 1 mg/kg PO) it was 49% ^⋄ *; with mice [1] (drug 1 10 mg/kg PO) it was 55% ^⋄. The “TOTAL ACTIVITY POST-AMPHETAMINE (AUC)” value is 11419.2 ± 550.4 in the test on mice [1] (drug 1 0.01 mg/kg PO); 5616.8 ± 618.2 in the test on mice [1] (drug 1 0.03 mg/kg PO); 4623.8 ± 1166.7 in the test with mice [1] (drug 1 0.1 mg/kg PO); 6867.3 ± 979.3 with mice [1] (drug 1 1 mg/kg PO); 6026.0 ± 1007.9 in the test on mice [1] (drug 1 10 mg/kg PO). In addition, the “TOTAL ACTIVITY POST-COCAINE (AUC)” value with mice [2] (drug 1 0.01 mg/kg PO) stood at 5036.5 ± 464.2; with mice [2] (drug 1 0.03 mg/kg PO) it was 5033.5 ± 503.8; with mice [2] (drug 1 0.1 mg/kg PO), 6263.0 ± 436.6; with mice [2] (drug 1 0.3 mg/kg PO), 3662.1 ± 1458.2. Also, the “% DECREASE ACTIVITY” value with mice [2] (drug 1 0.01 mg/kg PO) worked out at 52% ^⋄ *; with mice [2] (drug 1 0.03 mg/kg PO), 52% ^⋄ *; with mice [2] (drug 1 0.1 mg/kg PO) it was 40% ^⋄ *; with mice [2] (drug 1 0.3 mg/kg PO) it was 65% ^⋄. In test [3], the “% DECREASE ROTATIONS” value was 58% ^⋄ *.

Source of the values: patent US20110160265A1, “METHOD OF TREATING MOTOR DISORDERS WITH ALPHA-2B ADRENERGIC RECEPTOR AGONISTS” (priority 2007, published 2011).
